Tests used:
Format in all cases: cell-based
Human Nav1.8 = target: T1, Human Nav1.8 (Homo sapiens, UniProt Q9Y5Y9); test: VIPR Assay for Nav1.8 Compounds (FRET membrane potential, deltamethrin opener); settings: VIPR FRET membrane potential assay, deltamethrin opener; average of replicates; read-out: Nav1.8 IC50
T1 construct: expressed in transfected cells; host or cells: HEK293

Human Nav1.5 = target: T2, Human Nav1.5 (Homo sapiens, UniProt Q14524); test: Nav1.5 Assay (VIPR, HEK293 cells); settings: HEK293 cells expressing Human Nav1.5; average of replicates; read-out: Nav1.5 IC50
T2 construct: expressed in transfected cells; host or cells: HEK293
Method: The Nav1.5 assay is performed in HEK293 cells expressing Human Nav1.5 in the same way as the Nav1.8 assay.
Where replicate experiments were conducted resulting in multiple sets of data for a test compound, the data presented represent the average value from all replicate experiments.

[1] = system: tetrodotoxin-sensitive voltage-gated sodium channels including NaV1.2, NaV1.3 and NaV1.7; test: TTX-S Assay (VIPR, SHSY-5Y cell line, veratridine opener); settings: read-out: TTX-S IC50, veratridine 50 μM opener, average of replicates

T1 sequence (Q9Y5Y9 whole entry): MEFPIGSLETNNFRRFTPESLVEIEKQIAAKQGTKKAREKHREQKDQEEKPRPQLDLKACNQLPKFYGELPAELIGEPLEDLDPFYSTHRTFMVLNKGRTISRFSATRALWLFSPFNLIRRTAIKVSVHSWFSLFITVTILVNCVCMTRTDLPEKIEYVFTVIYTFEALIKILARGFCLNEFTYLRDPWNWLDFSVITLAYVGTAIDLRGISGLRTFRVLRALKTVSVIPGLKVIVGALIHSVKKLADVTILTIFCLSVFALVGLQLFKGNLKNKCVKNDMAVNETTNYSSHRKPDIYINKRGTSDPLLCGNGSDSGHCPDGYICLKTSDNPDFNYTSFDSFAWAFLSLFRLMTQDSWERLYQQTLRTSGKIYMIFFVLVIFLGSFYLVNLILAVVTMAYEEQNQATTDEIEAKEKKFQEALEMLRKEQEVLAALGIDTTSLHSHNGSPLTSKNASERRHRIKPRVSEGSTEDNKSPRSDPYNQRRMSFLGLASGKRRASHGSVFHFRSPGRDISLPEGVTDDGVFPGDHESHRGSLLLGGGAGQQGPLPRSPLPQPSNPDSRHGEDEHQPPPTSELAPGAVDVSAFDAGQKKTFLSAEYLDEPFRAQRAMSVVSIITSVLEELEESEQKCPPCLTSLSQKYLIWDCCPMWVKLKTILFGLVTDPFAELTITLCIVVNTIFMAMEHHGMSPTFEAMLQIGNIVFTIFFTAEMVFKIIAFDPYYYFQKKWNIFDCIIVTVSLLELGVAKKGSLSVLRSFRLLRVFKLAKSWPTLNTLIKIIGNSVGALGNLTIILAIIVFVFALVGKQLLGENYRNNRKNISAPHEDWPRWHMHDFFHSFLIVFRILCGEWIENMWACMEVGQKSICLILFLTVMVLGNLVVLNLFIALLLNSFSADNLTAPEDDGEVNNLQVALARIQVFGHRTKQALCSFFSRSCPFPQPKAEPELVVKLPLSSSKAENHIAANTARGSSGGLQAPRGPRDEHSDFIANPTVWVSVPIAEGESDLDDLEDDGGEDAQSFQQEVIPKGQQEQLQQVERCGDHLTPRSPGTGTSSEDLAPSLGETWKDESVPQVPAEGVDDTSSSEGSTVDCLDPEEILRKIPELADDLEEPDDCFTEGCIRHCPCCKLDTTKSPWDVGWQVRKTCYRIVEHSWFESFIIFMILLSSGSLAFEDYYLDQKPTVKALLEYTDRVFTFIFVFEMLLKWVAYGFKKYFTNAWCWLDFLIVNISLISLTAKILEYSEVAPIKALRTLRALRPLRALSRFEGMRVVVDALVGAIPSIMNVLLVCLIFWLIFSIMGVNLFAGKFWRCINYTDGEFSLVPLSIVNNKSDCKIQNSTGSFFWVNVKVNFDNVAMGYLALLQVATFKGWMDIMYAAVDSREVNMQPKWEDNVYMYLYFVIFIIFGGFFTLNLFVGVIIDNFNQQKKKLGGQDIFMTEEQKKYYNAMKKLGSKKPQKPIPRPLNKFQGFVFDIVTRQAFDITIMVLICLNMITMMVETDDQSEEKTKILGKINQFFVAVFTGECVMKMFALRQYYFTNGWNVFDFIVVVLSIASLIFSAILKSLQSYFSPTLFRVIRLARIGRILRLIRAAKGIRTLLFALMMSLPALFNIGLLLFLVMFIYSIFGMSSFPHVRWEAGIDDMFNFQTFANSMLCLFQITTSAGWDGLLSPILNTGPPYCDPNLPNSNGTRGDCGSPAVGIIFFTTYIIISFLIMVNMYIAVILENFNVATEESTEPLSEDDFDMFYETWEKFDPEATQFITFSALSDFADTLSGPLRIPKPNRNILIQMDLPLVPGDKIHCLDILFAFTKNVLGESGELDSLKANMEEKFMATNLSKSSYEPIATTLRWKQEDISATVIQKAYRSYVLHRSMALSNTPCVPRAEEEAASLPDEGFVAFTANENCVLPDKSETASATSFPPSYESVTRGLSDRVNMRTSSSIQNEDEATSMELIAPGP
T2 sequence (Q14524 whole entry): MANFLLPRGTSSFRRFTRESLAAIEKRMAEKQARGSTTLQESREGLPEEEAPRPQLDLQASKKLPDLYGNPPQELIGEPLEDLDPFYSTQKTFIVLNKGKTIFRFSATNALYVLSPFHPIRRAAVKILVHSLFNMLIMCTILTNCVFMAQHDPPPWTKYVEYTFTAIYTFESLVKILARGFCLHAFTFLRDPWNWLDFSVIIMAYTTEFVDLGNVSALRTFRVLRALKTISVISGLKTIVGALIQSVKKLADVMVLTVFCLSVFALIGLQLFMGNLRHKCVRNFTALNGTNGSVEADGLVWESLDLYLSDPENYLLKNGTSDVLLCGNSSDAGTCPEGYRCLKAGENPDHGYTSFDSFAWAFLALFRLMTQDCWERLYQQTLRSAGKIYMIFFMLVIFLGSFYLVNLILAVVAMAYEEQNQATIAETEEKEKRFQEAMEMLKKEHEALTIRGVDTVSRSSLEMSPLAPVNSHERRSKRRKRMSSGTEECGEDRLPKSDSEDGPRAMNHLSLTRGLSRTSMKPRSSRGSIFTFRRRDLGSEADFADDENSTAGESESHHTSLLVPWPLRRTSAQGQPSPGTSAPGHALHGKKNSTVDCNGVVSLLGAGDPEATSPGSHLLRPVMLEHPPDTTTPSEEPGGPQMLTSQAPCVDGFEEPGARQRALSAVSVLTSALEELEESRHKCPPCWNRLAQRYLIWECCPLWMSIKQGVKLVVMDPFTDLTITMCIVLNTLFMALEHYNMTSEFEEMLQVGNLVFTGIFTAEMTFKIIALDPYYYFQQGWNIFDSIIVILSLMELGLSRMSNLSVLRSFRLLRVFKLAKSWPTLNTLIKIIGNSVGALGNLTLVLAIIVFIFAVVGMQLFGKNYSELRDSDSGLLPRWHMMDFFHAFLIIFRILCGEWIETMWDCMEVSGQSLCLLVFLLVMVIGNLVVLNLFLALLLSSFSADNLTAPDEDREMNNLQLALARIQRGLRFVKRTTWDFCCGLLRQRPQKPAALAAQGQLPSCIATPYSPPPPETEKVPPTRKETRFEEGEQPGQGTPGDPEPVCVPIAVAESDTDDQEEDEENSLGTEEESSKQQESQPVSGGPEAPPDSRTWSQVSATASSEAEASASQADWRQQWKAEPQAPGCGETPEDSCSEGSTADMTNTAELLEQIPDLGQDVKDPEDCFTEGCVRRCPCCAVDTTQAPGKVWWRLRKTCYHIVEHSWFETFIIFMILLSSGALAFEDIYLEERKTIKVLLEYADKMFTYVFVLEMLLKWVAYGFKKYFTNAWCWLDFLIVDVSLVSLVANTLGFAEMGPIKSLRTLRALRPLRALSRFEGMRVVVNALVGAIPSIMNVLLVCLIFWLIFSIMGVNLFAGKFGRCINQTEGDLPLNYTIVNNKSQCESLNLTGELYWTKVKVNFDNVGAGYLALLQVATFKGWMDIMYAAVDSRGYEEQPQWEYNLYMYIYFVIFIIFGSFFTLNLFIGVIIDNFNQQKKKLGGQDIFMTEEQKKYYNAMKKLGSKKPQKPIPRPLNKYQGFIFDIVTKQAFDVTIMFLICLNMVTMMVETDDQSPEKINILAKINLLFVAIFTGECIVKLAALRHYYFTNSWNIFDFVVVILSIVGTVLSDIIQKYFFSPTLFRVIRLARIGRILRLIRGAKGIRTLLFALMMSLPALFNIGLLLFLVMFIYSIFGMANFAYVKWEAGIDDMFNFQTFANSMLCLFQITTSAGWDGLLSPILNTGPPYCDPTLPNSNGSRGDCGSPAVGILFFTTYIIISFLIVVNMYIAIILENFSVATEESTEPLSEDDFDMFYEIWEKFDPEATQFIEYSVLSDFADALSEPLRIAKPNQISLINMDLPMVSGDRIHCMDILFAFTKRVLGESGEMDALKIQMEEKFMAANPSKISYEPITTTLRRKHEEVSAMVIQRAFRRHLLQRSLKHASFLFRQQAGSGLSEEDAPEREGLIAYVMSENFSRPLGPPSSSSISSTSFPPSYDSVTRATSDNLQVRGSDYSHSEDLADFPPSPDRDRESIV

Row | SMILES | IC50 (Human Nav1.8) [µM] | IC50 (Human Nav1.5) [µM] | IC50 [1] [µM]
1 | Cc1nocc1C(=O)Nc1ccc(-c2cc(O)ccc2Cl)c(N)n1 [Example 175, N-[6-amino-5-(2-chloro-5-hydroxyphenyl)pyridin-2-yl]-3-methylisoxazole-4-carboxamide] | 23 | > 32 | 20
2 | CCn1nccc1C(=O)Nc1ccc(-c2cc(Cl)ccc2OC(F)(F)F)c(N)n1 [Example 63, N-{6-Amino-5-[5-chloro-2-(trifluoromethoxy)phenyl]pyridin-2-yl}-1-ethyl-1H-pyrazole-5-carboxamide] | 4.3 | 16 | 4.4
3 | CCn1nccc1C(=O)Nc1ccc(-c2ccccc2C(F)(F)F)c(N)n1 [Example 60, N-{6-Amino-5-[2-(trifluoromethyl)phenyl]pyridin-2-yl}-1-ethyl-1H-pyrazole-5-carboxamide] | 4.3 | 20 | > 32
4 | Nc1nc(NC(=O)c2conc2C(F)(F)F)ccc1-c1ccccc1Cl [Example 111] | 0.51 | 16 | 6.1
5 | Cc1oncc1C(=O)Nc1ccc(-c2ccccc2Cl)c(N)n1 [Example 20, N-[6-Amino-5-(2-chlorophenyl)pyridin-2-yl]-5-methylisoxazole-4-carboxamide] | 1 | 17 | 14
6 | Cn1nccc1C(=O)Nc1ccc(-c2cc(Cl)ccc2Cl)c(N)n1 [Example 3, N-[6-Amino-5-(2,5-dichlorophenyl)pyridin-2-yl]-1-methyl-1H-pyrazole-5-carboxamide] | 0.9 | 15 | 11
7 | N#Cc1ccccc1C(=O)Nc1ccc(-c2ccccc2OC(F)(F)F)c(N)n1 [Example 107, N-{6-Amino-5-[2-(trifluoromethoxy)phenyl]pyridin-2-yl}-2-cyanobenzamide] | 2.5 | 2.5 | 3.1
8 | Cc1nocc1C(=O)Nc1ccc(-c2cccc3c2OCCO3)c(N)n1 [Example 35, N-[6-Amino-5-(2,3-dihydro-1,4-benzodioxin-5-yl)pyridin-2-yl]-3-methylisoxazole-4-carboxamide] | 11 | > 32 | > 32
9 | Nc1nc(NC(=O)c2ccccc2)ccc1-c1ccccc1OC(F)(F)F [Example 99] | 3.2 | 15 | 6.6
10 | COc1ccc(Cl)c(-c2ccc(NC(=O)c3conc3C(F)(F)F)nc2N)c1 [Example 113] | 3.8 | 14 | 8.7
11 | Cn1nccc1C(=O)Nc1ccc(-c2cc(OC(F)(F)F)ccc2F)c(N)n1 [Example 17, N-{6-Amino-5-[2-fluoro-5-(trifluoromethoxy)phenyl]pyridin-2-yl}-1-methyl-1H-pyrazole-5-carboxamide] | 3.4 | 19 | 7.7
12 | Cn1nccc1C(=O)Nc1ccc(-c2cccc(Cl)c2Cl)c(N)n1 [Example 9, N-[6-Amino-5-(2,3-dichlorophenyl)pyridin-2-yl]-1-methyl-1H-pyrazole-5-carboxamide] | 4.2 | 27 | > 32
13 | COc1cc(Cl)c(Cl)c(-c2ccc(NC(=O)c3cnnn3C)nc2N)c1 [Example 81, N-[6-Amino-5-(2,3-dichloro-5-methoxyphenyl)pyridin-2-yl]-1-methyl-1H-1,2,3-triazole-5-carboxamide] | 1.1 | 2.9 | 7.5
14 | Cc1nocc1C(=O)Nc1ccc(-c2cc(OC(F)(F)F)ccc2F)c(N)n1 [Example 36, N-{6-Amino-5-[2-fluoro-5-(trifluoromethoxy)phenyl]pyridin-2-yl}-3-methylisoxazole-4-carboxamide] | 1.3 | 6.4 | 2.2
15 | N#Cc1cccc(C(=O)Nc2ccc(-c3ccccc3OC(F)(F)F)c(N)n2)c1 [Example 106, N-{6-Amino-5-[2-(trifluoromethoxy)phenyl]pyridin-2-yl}-3-cyanobenzamide] | 5.3 | 16 | 8.1

Reference: patent US8134007B2, “Pyridine derivatives” (Pfizer Inc., priority 2007, dated 2012)
